For 31 compounds, drug sensitivity score results are on record in the supplement of paper PMC11616607.

One assay concerns HOSE2C. In words: drug sensitivity score (DSS) from 5-point dose-response viability curve (DSS (area-under-curve based score)); higher = more sensitive (stronger growth inhibition or killing); extreme values may be limits of the assay. Conditions: exposure time: 72 h; concentration range: 5 concentrations over 10,000-fold range. A digest of the protocol:
(§1)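 Drug sensitivity scores were calculated in Breeze software for each cell line and drug pair; higher scores indicate more sensitivity. A score of zero indicates no response. The underlying assay used 384-well plates: drugs were placed by an Echo 550 acoustic dispenser at five concentrations spanning a 10,000-fold range, 1,500 ovarian cancer or normal ovarian cells were added per well, and cells were kept 3 days at 37°C, 5% CO2. Viability was then measured with CellTiter-Glo luminescence on a PHERAstar FS.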
For `Cc1cnc(-c2ccccc2C(C)C)nc1NCc1ccc(-n2ccnn2)cc1` [ML323], the drug sensitivity score came to 0. The same measure, in the same setting: the figure for `Cc1ccc(C(=O)Nc2cccc(C(F)(F)F)c2)cc1Nc1nc(-c2cccnc2)nc2c1cnn2C` [NVP-BHG712] is 2.7; for `COc1cc2c(cc1OCCCN1CCCC1)N=C(N)C21CCC1` [A-366] it is 0.

Consider `CS(=O)(=O)c1ccc(C(=O)Nc2ccc(Cl)c(-c3ccccn3)c2)c(Cl)c1` [Vismodegib], for which the drug sensitivity score was determined as 0. The same measure, in the same setting: the figure for `COc1cc2c(Oc3ccc4[nH]c(C)cc4c3F)ncnc2cc1OCCCN1CCCC1` [Cediranib] is 0; for `CCNC(=O)c1noc(-c2cc(C(C)C)c(O)cc2O)c1-c1ccc(CN2CCOCC2)cc1` [Luminespib] it is 23; for `Cc1cnc(Nc2ccc(OCCN3CCCC3)cc2)nc1Nc1cccc(S(=O)(=O)NC(C)(C)C)c1` [Fedratinib] it is 8.5. Same read-out and setting: the figure for `CNC(=O)c1ccc(C)c(-n2c(C)cc(OCc3ccc(F)cc3F)c(Br)c2=O)c1` is 0.

Consider `Cc1nc(Nc2n[nH]c3c2CN(C(=O)N[C@H](CN(C)C)c2ccccc2)C3(C)C)c2sccc2n1`, for which the drug sensitivity score was determined as 7.5.

`CCN(CC)Cc1ccc2cc(COC(=O)Nc3ccc(C(=O)NO)cc3)ccc2c1` [Givinostat] had a drug sensitivity score of 8.6.

For the compound `CC(C)(C)Cn1c(N)nc2ccc(-c3[nH]c(C(C)(C)C)nc3-c3ccc(F)cc3)nc21` [Ralimetinib], the drug sensitivity score is 0.5.

Consider `COc1cc2nccc(Oc3ccc(NC(=O)NC4CC4)c(Cl)c3)c2cc1C(N)=O` [Lenvatinib], for which the drug sensitivity score was 2.9. `S=c1[nH]cnc2nc[nH]c12` [Mercaptopurine]: the drug sensitivity score is 0. The compound `CNc1nc(Nc2cn(C(C)(C)C#N)nc2C)ncc1C(F)(F)F` [GNE-0877] came in with a drug sensitivity score of 0. For the compound `COc1cc2nccc(Oc3ccc(NC(=O)C4(C(=O)Nc5ccc(F)cc5)CC4)cc3)c2cc1OC` [Cabozantinib], the drug sensitivity score stood at 0.6. On the same count and under the same terms, the figure for `CN1CC[C@H](c2c(O)cc(O)c3c(=O)cc(-c4ccccc4Cl)oc23)[C@H](O)C1` [Alvocidib] is 11.9. On the same count and under the same terms, next, `O=C1NC(=O)[C@@H](c2cn3c4c(cccc24)CCC3)[C@@H]1c1c[nH]c2ccccc12` [Tivantinib]: 4.7. Same read-out and setting: next, `C[C@@H](Nc1cc(F)cc(F)c1)c1cc(C(=O)N(C)C)cc2c(=O)cc(N3CCOCC3)oc12` [AZD-8186]: 0.3; `O=C1Cc2cc(C(=O)NC3C[C@H]4CC[C@@H](C3)N4S(=O)(=O)CC3CCN(CCCC(F)(F)F)CC3)c(Cl)cc2N1` (stereo partly specified): 0. `C/C(=C\c1csc(C)n1)[C@@H]1C[C@@H]2O[C@]2(C)CCC[C@H](C)[C@H](O)[C@@H](C)C(=O)C(C)(C)[C@@H](O)CC(=O)N1` [Ixabepilone] registered a drug sensitivity score of 2. The same measure, in the same setting: the figure for `COc1ccc(COc2cc3oc(=O)c4cc(C(C)O)ccc4c3cc2OC)cc1` (stereo unspecified) [Palomid-529] is 0; for `Nc1ncn([C@@H]2O[C@H](CO)[C@@H](O)[C@H]2O)c(=O)n1` [Azacitidine] it is 0; for `Cc1nn(C)c(COc2ccc(N3CCN(S(=O)(=O)N(C)C)CC3)cc2)c1-c1cccc2c(CCCOc3cccc4ccccc34)c(C(=O)O)n(CCN3CCOCC3)c12` it is 13.7. Compound `C=C1C[C@@H]2[C@H](CC[C@]3(C)C(=O)CC[C@@H]23)[C@@]2(C)C=CC(=O)C=C12` [Exemestane] had a drug sensitivity score of 0.

The compound `C[C@@H]1C=C2C(=O)O[C@@H]3CC[C@H](C1)[C@]23O` [Galiellalactone] came in with a drug sensitivity score of 7.3. On the same count and under the same terms, the figure for `Cn1c(Nc2ccc(C(F)(F)F)cc2)nc2cc(Oc3ccnc(-c4ncc(C(F)(F)F)[nH]4)c3)ccc21` [NVP-RAF265] is 4.5; for `Cn1ncc(Cl)c1-c1cc(C(=O)N[C@H](CN)Cc2ccc(F)c(F)c2)oc1Cl` [Uprosertib] it is 2.1; for `CC1=C2C[C@H]3[C@@H](CC[C@@H]4C[C@H](NS(C)(=O)=O)CC[C@@]43C)[C@@H]2CC[C@@]2(C1)O[C@@H]1C[C@H](C)CN[C@H]1[C@H]2C` [Saridegib] it is 0.1. Compound `COc1cc2c(Oc3ccc(NC(=O)C4(C(=O)Nc5ccc(F)cc5)CC4)cc3F)ccnc2cc1OCCCN1CCOCC1` [Foretinib] showed a drug sensitivity score of 4.5. On to `COCCOc1cnc2ccn([C@H](C)c3nnc4c(F)cc(-c5cnn(C)c5)cn34)c(=O)c2c1` [AMG-337], for which the drug sensitivity score amounted to 0. On the same count and under the same terms, the figure for `Nc1ccccc1NC(=O)c1ccc(CNC(=O)OCc2cccnc2)cc1` [Entinostat] is 11.8.

A further assay deals with OV90. Described as above. Conditions: exposure time: 72 h; concentration range: 5 concentrations over 10,000-fold range. A digest of the protocol:
as §1
In the case of `Cc1cnc(-c2ccccc2C(C)C)nc1NCc1ccc(-n2ccnn2)cc1` [ML323], the drug sensitivity score is 0.1. The compound `Cc1ccc(C(=O)Nc2cccc(C(F)(F)F)c2)cc1Nc1nc(-c2cccnc2)nc2c1cnn2C` [NVP-BHG712] registered a drug sensitivity score of 0.1. `COc1cc2c(cc1OCCCN1CCCC1)N=C(N)C21CCC1` [A-366] gave a drug sensitivity score of 5.7. On the same count and under the same terms, the figure for `CS(=O)(=O)c1ccc(C(=O)Nc2ccc(Cl)c(-c3ccccn3)c2)c(Cl)c1` [Vismodegib] is 0.1.

In turn, `COc1cc2c(Oc3ccc4[nH]c(C)cc4c3F)ncnc2cc1OCCCN1CCCC1` [Cediranib] returned a drug sensitivity score of 0. Still for that read-out and setting: the figure for `CCNC(=O)c1noc(-c2cc(C(C)C)c(O)cc2O)c1-c1ccc(CN2CCOCC2)cc1` [Luminespib] is 17.2; for `Cc1cnc(Nc2ccc(OCCN3CCCC3)cc2)nc1Nc1cccc(S(=O)(=O)NC(C)(C)C)c1` [Fedratinib] it is 8.8; for `CNC(=O)c1ccc(C)c(-n2c(C)cc(OCc3ccc(F)cc3F)c(Br)c2=O)c1` it is 0. `Cc1nc(Nc2n[nH]c3c2CN(C(=O)N[C@H](CN(C)C)c2ccccc2)C3(C)C)c2sccc2n1` had a drug sensitivity score of 17.

In the case of `CCN(CC)Cc1ccc2cc(COC(=O)Nc3ccc(C(=O)NO)cc3)ccc2c1` [Givinostat], the drug sensitivity score came to 7.7.

On to `CC(C)(C)Cn1c(N)nc2ccc(-c3[nH]c(C(C)(C)C)nc3-c3ccc(F)cc3)nc21` [Ralimetinib], for which the drug sensitivity score was determined as 4.1. On the same count and under the same terms, the figure for `COc1cc2nccc(Oc3ccc(NC(=O)NC4CC4)c(Cl)c3)c2cc1C(N)=O` [Lenvatinib] is 0.1.

In turn, `S=c1[nH]cnc2nc[nH]c12` [Mercaptopurine] showed a drug sensitivity score of 4.4.

The compound `CNc1nc(Nc2cn(C(C)(C)C#N)nc2C)ncc1C(F)(F)F` [GNE-0877] showed a drug sensitivity score of 0. The compound `COc1cc2nccc(Oc3ccc(NC(=O)C4(C(=O)Nc5ccc(F)cc5)CC4)cc3)c2cc1OC` [Cabozantinib] gave a drug sensitivity score of 4.5.
